Measurements reported in patent US6379651B1, “Oral-topical dosage forms for delivering antibacterials/antibiotics to oral cavity to eradicate H. pylori as a concomitant treatment for peptic ulcers and other gastro-intestinal diseases” (priority 1995, dated 2002).

Key:
[1] = in vivo; cited from earlier work
H. pylori [2] = conditions: in vivo; cited from earlier work
Campylobacter rectus = assay: In vitro MIC, Campylobacter rectus; format: cell-based
Helicobacter pylori = assay: In vitro MIC, Helicobacter pylori; format: cell-based
Treponema denticola = assay: In vitro MIC, Treponema denticola; format: cell-based
rat mesentery culture = assay: In vitro rat mesentery culture wound closure model; format: cell-based; conditions: for concentrations of growth factors EGF and FGF: 10 mcg/mL to 1,000 mcg/mL in medium, 2% fetal calf serum; for wound closure: 10 mcg/mL to 1,000 mcg/mL, 24-hour, 48-hour and 72-hour, compared to the placebo
Source text: This tissue culture model is useful for gaining insights into growth factor interactions and wound healing.

[3] = Diabetic mouse wound healing model; format: in vivo; conditions: formulations of 10 mcg/ml to 1,000 mcg/ml
Description: Further, wound healing potential of the above bismuth compounds is evaluated using a diabetic mouse wound healing model (Matuszewska et al., Pharmaceutical Research 11(1):65-71 (1994), incorporated herein by reference).

[4] = Freeze-injured skin graft model; format: in vivo; conditions: for wound healing rates compared to placebo: Doses of 10 to 1000 mcg/mL; for wound healing in cryoinjured grafts: in vivo
[5] = Description: Artificial saliva was used (Table 9).
Artificial saliva is used (Table 9).
The test saliva is prepared by dissolving 0.500 g of the antibiotic or antibacterial agent in a 100 mL of the above artificial saliva. […] The denture materials that are exposed to artificial saliva containing the agent or placebo are evaluated.

H. pylori [6] = conditions: cited from earlier work
[7] = compared with placebo, cimetidine and ranitidine; cited from earlier work
[8] = in vivo; cited from earlier work; remark: listed apart in the source

Molecule	secretion in the saliva [1]	eradication rate for H. pylori (H. pylori [2])	minimum effective concentrations (MICs) (Campylobacter rectus)	minimum effective concentrations (MICs) (Helicobacter pylori)	minimum effective concentrations (MICs) (Treponema denticola)	concentrations of growth factors EGF and FGF (rat mesentery culture)	wound closure (rat mesentery culture)	wound healing compared to placebo [3]	wound healing rates compared to placebo [4]	wound healing in cryoinjured grafts [4]	staining, discoloration or changes in texture of natural tooth and denture materials [5]	minimum inhibitory concentration (MIC) against H. pylori (H. pylori [6])	MIC against H. pylori, range (H. pylori [6]; range)	relapse rates of duodenal ulcers [7]	absorption from the GI [1]	steady-state blood levels unlikely to cause any neurotoxicity [8]
CC[C@H]1OC(=O)[C@H](C)[C@@H](O[C@H]2C[C@@](C)(OC)[C@@H](O)[C@H](C)O2)[C@H](C)[C@@H](O[C@@H]2O[C@H](C)C[C@H](N(C)C)[C@H]2O)[C@](C)(OC)C[C@@H](C)C(=O)[C@H](C)[C@@H](O)[C@]1(C)O [Clarithromycin]	secreted in the saliva															
Cc1ncc([N+](=O)[O-])n1CCO [metronidazole]		5%														
L-dihydro ascorbyl-tetrakis (hydrogen sulfate) bismuth complex [Bismuth Ascorbyl Sulfate]			256 µg/mL	8 µg/mL	16 µg/mL	Significantly higher	significantly faster wound closure rate and complete closure	heal faster	significant increase	stimulates wound healing in cryoinjured grafts in a dose-related fashion						
beta-D-fructofuranosyl-oktakis (hydrogen sulfate) bismuth complex [Bismuth Sucrose Sulfate]			>256 µg/mL	16 µg/mL	32 µg/mL											
colloidal bismuth subcitrate [CBS]	produces no salivary concentrations		256 µg/mL	2 µg/mL	32 µg/mL	Significantly higher	significantly faster wound closure rate and complete closure	heal faster	significant increase	stimulates wound healing in cryoinjured grafts in a dose-related fashion	did not cause any staining, discoloration, or changes in texture	8 µg/mL	4 to 32 µg/mL	significantly lower relapse rates	not absorbed significantly	50-100
